Source: ChEMBL document CHEMBL4184305, “Inhibition of histone lysine methyltransferases G9a and GLP by ejection of structural Zn(II)” (Bioorg Med Chem Lett, 2018)
pIC50: −log10 of the molar value. Structures can show the parent of a compound that is named as a salt. Calls of active or inactive are those of the source. The rule behind the calls is not given here.

How the values were obtained:
[1] = molecular target: T1, Histone-lysine N-methyltransferase EHMT1 (Homo sapiens) (UniProt Q9H9B1); assay: (§1) Inhibition of wild type recombinant human histone lysine methyltransferase GLP (951 to 1235 residues) expressed in Escherichia coli Rosetta BL21 DE3 PlysS at 10 uM using ARTKQTARKSTGGKA as substrate preincubated for 5 mins followed by substrate/SAM addition measured after 60 mins by MALDI-TOF MS analysis
T1 sequence (whole entry): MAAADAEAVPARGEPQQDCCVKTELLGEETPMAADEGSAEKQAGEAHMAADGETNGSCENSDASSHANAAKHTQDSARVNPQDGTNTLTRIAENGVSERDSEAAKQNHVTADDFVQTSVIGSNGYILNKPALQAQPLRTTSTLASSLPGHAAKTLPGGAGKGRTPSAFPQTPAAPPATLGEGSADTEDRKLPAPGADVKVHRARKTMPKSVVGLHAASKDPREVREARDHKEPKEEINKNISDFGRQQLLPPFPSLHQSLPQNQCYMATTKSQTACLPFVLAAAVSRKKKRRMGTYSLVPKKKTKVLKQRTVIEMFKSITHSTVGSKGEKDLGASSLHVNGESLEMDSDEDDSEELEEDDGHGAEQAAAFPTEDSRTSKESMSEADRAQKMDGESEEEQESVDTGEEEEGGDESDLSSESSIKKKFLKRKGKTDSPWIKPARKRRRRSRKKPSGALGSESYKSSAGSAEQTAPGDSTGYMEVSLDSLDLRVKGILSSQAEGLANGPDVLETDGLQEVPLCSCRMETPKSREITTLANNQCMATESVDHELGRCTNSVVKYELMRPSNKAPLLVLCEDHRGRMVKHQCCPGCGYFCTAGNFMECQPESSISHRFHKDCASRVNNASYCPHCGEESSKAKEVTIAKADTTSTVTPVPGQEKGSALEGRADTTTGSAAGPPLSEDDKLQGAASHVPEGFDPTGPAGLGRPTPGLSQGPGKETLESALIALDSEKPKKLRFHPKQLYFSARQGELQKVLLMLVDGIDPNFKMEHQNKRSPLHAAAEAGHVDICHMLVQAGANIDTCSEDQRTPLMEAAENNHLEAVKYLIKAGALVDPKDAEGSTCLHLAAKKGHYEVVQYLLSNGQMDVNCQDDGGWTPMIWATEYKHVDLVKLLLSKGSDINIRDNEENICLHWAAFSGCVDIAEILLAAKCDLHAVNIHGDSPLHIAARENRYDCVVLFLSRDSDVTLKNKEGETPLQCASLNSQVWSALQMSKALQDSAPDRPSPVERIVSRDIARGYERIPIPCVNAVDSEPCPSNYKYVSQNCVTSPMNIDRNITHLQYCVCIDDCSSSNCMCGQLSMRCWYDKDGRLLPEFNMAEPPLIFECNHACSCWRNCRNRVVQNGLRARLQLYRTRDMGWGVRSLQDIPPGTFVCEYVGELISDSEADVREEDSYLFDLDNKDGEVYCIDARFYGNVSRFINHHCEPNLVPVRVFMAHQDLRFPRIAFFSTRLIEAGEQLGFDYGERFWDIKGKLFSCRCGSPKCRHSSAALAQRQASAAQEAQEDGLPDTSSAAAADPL

[2] = molecular target: T1, Histone-lysine N-methyltransferase EHMT1 (Homo sapiens); assay: Inhibition of wild type recombinant human histone lysine methyltransferase GLP (951 to 1235 residues) expressed in Escherichia coli Rosetta BL21 DE3 PlysS assessed as zinc ions ejection from Cys4-Zn finger at 100 uM by FluoZin-3 based fluorescence assay
[3] = molecular target: T2, Histone-lysine N-methyltransferase EHMT2 (Homo sapiens) (UniProt Q96KQ7); assay: as §1, with “G9a (913” for “GLP (951”, “1193” for “1235”
T2 sequence (whole entry): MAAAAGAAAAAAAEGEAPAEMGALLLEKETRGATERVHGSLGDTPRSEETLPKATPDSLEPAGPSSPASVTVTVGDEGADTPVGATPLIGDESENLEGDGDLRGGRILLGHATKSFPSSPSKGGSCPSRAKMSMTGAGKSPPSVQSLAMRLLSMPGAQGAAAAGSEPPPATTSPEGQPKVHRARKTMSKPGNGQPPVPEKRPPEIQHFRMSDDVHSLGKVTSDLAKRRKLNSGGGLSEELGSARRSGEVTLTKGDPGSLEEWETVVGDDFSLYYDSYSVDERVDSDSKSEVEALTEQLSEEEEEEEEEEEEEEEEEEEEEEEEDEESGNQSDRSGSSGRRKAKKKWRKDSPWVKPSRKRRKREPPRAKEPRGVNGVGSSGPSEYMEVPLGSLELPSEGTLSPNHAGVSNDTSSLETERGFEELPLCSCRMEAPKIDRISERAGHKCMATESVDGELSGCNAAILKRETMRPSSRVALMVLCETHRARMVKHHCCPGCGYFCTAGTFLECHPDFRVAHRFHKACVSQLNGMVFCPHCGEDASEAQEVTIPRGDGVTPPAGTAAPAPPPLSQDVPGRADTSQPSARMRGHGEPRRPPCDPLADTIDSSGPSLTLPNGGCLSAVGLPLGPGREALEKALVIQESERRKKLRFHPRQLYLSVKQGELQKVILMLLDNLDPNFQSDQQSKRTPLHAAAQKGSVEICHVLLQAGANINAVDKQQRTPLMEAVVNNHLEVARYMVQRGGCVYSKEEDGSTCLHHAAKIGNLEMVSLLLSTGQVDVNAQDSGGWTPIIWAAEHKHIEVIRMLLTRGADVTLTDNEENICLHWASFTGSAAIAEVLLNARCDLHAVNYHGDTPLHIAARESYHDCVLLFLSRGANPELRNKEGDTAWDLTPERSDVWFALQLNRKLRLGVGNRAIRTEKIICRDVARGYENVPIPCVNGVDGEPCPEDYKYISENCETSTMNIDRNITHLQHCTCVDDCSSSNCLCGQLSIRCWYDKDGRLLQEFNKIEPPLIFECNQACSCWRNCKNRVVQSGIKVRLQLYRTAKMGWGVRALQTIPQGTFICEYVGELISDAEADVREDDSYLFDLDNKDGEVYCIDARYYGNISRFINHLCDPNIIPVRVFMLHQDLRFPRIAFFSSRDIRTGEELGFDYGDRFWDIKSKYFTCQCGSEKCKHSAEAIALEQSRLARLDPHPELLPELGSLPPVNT

[4] = molecular target: T2, Histone-lysine N-methyltransferase EHMT2 (Homo sapiens); assay: Inhibition of wild type recombinant human histone lysine methyltransferase G9a (913 to 1193 residues) expressed in Escherichia coli Rosetta BL21 DE3 PlysS assessed as zinc ions ejection from Cys4-Zn finger at 100 uM by FluoZin-3 based fluorescence assay
[5] = molecular target: T1, Histone-lysine N-methyltransferase EHMT1 (Homo sapiens); assay: as §1, with “100” for “10”
[6] = molecular target: T3, Histone-lysine N-methyltransferase EHMT1 (Homo sapiens, UniProt Q9H9B1); assay: Inhibition of wild type recombinant human histone lysine methyltransferase GLP (951 to 1235 residues) expressed in Escherichia coli Rosetta BL21 DE3 PlysS using ARTKQTARKSTGGKA as substrate preincubated for 5 mins followed by substrate/SAM addition measured after 60 mins by MALDI-TOF MS analysis
T3 sequence (Q9H9B1 whole entry): T1 sequence (whole entry)

[7] = molecular target: T2, Histone-lysine N-methyltransferase EHMT2 (Homo sapiens); assay: as §1, with “G9a (913” for “GLP (951”, “1193” for “1235”, “100” for “10”
[8] = molecular target: T4, Histone-lysine N-methyltransferase EHMT2 (Homo sapiens, UniProt Q96KQ7); assay: Inhibition of wild type recombinant human histone lysine methyltransferase G9a (913 to 1193 residues) expressed in Escherichia coli Rosetta BL21 DE3 PlysS using ARTKQTARKSTGGKA as substrate preincubated for 5 mins followed by substrate/SAM addition measured after 60 mins by MALDI-TOF MS analysis
T4 sequence (Q96KQ7 whole entry): T2 sequence (whole entry)

SMILES | inhibition [1] | inhibition [2] | inhibition [3] | inhibition [4] | inhibition [5] | pIC50 [6] | inhibition [7] | pIC50 [8]
c1ccc(SSc2ccccn2)nc1 | inactive | Active | inactive | Active | > 50% | 5.57 | > 50% | 6.19
O=C1c2ccccc2C(=O)C1(O)O | inactive | Active | inactive | Active | 40% | < 4.00 |  | 4.27
c1ccc([Se][Se]c2ccccc2)cc1 | inactive | Active | inactive | Active | > 50% | 6.07 | > 50% | 6.26
Cl[Se]c1ccccc1 | inactive | Active | inactive | Active | > 50% | 5.96 | > 50% | 5.92
Br[Se]c1ccccc1 | inactive | Active | inactive | Active | > 50% | 5.82 | > 50% | 6.10
O=C1c2ccccc2C(=O)N1[Se]c1ccccc1 | inactive | Active | inactive | Active | > 50% | 6.00 | > 50% | 6.35
COc1cc2c(NC3CCN(C(C)C)CC3)nc(C3CCCCC3)nc2cc1OCCCN1CCCC1 |  | Active |  | Active |  |  |  | 
C[S+](C)[O-] |  | Active |  | Active |  |  |  | 
O=C1c2ccccc2C(=O)c2ccccc21 [ANTHRAQUINONE] | inactive | Active | inactive | Active | 20% | < 4.00 | 20% | < 4.00
O=[Se](O)c1ccccc1 [BENZENE SELENOIC ACID] | inactive | Active | inactive | Active | > 50% | 5.31 | > 50% | 5.36
NCCSSCCN [CYSTAMINE DIHYDROCHLORIDE] | inactive | Active | inactive | Active |  | < 4.00 |  | 4.82
NCCS [CYSTEAMINE] | inactive | Active | inactive | Active |  | < 4.00 |  | < 4.00
CCN(CC)C(=S)S [DITIOCARB SODIUM] | inactive | Active | inactive | Active | > 50% | 4.09 | > 50% | 5.04
NC(=O)/N=N/C(N)=O [E927A] | inactive | Active | inactive | Active | > 50% | 5.77 | > 50% | 6.30
N[C@@H](CCC(=O)N[C@@H](CS)C(=O)NCC(=O)O)C(=O)O [GLUTATHIONE] | inactive | Active | inactive | Active |  | < 4.00 |  | < 4.00
O=C1C=CC(=O)c2ccccc21 [NAPHTHOQUINONE] | inactive | Active | inactive | Active | > 50% | 4.85 | > 50% | 5.70
O=[Se](=O)(O)O [SODIUM SELENATE] | inactive | Active | inactive | Active | 10% | < 4.00 | 10% | < 4.00
CN(C)C(=S)SSC(=S)N(C)C [THIRAM] | inactive | Active | inactive | Active | > 50% | 5.96 | > 50% | 6.26
